Test results taken from patent publication US11186577B2, “Vasopressin receptor antagonists and products and methods related thereto” (BlackThorn Therapeutics, Inc., priority 2017, dated 2021).

Tested on: MDR1-MDCK cells
Test: MDR1-MDCK effective efflux assay (Transwell, 10 μM, 1 hour), MDR1-MDCK cells
Type: in vitro ADME
Conditions: MDCK-MDR1
Method in brief: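 Wild-type and MDR1-MDCK monolayers cultured 3 days were dosed with compound at 10 μM (0.1% DMSO) in HBSS/25 mM HEPES pH 7.4, in both A>B and B>A directions, for 1 h at 37 °C. Samples were quantified by LC-MS/MS to give Papp and efflux ratio. Effective efflux ratio = ER(MDR1-MDCK)/ER(wild-type); Lucifer Yellow checked monolayer integrity.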

Compound	MDR1 EER	MDR1 ER
CN1Cc2cc(Cl)ccc2-n2c(nnc2C2CC3(C2)CN(c2ccc(F)cn2)C3)C1 [compound 1, 8-chloro-1-(2-(5-fluoropyridin-2-yl)-2-azaspiro[3.3]heptan-6-yl)-5-methyl-5,6-dihydro-4H-benzo[f][1,2,4]triazolo[4,3-a][1,4]diazepine]	+	+
CN1Cc2cc(Cl)ccc2-n2c(nnc2C2CC3(C2)CN(c2cccc(F)n2)C3)C1 [compound 8]	+++	+++
Clc1ccc2c(c1)CN(C1COC1)Cc1nnc(C3CC4(C3)CN(c3ccccn3)C4)n1-2 [compound 57, 8-chloro-5-(oxetan-3-yl)-1-(2-(pyridin-2-yl)-2-azaspiro[3.3]heptan-6-yl)-5,6-dihydro-4H-benzo[f][1,2,4]triazolo[4,3-a][1,4]diazepine]	+	+
CCC(=O)N1Cc2cc(Cl)ccc2-n2c(nnc2C2CC3(C2)CN(c2ccccn2)C3)C1 [compound 67]	+	+
CC(C)C(=O)N1Cc2cc(Cl)ccc2-n2c(nnc2C2CC3(C2)CN(c2ccccn2)C3)C1 [compound 71]	+	+
O=C(N1Cc2cc(Cl)ccc2-n2c(nnc2C2CC3(C2)CN(c2cnccn2)C3)C1)C1(F)CC1 [compound 81]	+	+
O=C(C1CC1)N1CC2(CC(c3nnc4n3-c3ccc(Cl)cc3CN(C(=O)C3(F)CC3)C4)C2)C1 [compound 136]	+	+
COC(=O)N1Cc2cc(Cl)ccc2-n2c(C3CC4(C3)CN(c3ccc(F)cn3)C4)nnc2C1C (stereo not drawn) [compound 142, methyl 8-chloro-1-(2-(5-fluoropyridin-2-yl)-2-azaspiro[3.3]heptan-6-yl)-4-methyl-4H-benzo[f][1,2,4]triazolo[4,3-a][1,4]diazepine-5(6H)-carboxylate]	+	++
CC(C)OC(=O)N1Cc2cc(Cl)ccc2-n2c(nnc2C2CC3(C2)CN(C(=O)C2CC2)C3)C1 [compound 153]	+	+
COC(=O)N1Cc2cc(Cl)ccc2-n2c(C3CC4(C3)CN(c3ncccn3)C4)nnc2C1C (stereo not drawn) [compound 166]	+	+
CC(C)OC(=O)N1Cc2cc(Cl)ccc2-n2c(C3CC4(C3)CN(c3ncccn3)C4)nnc2C1C (stereo not drawn) [compound 167]	+++	+++
CCOC(=O)N1Cc2cc(Cl)ccc2-n2c(C3CC4(C3)CN(c3ncccn3)C4)nnc2C1C (stereo not drawn) [compound 168]	+	+
COC(=O)N1Cc2cc(Cl)ccc2-n2c(C3CC4(C3)CN(c3ncc(F)cn3)C4)nnc2C1C (stereo not drawn) [compound 170]	+	+
CC1c2nnc(C3CC4(C3)CN(c3ncccn3)C4)n2-c2ccc(Cl)cc2CN1C(=O)OC1CC1 (stereo not drawn) [compound 171]	+	+
CCOC(=O)N1Cc2cc(Cl)ccc2-n2c(C3CC4(C3)CN(c3ncc(F)cn3)C4)nnc2C1C (stereo not drawn) [compound 172]	++	++
CC1c2nnc(C3CC4(C3)CN(c3cnccn3)C4)n2-c2ccc(Cl)cc2CN1C(=O)C1(F)CC1 (stereo not drawn) [compound 177]	+	+
CC1c2nnc(C3CC4(C3)CN(c3ncc(F)cn3)C4)n2-c2ccc(Cl)cc2CN1C(=O)OC(CF)CF (stereo not drawn) [compound 194]	+	+

Same assay, conditions: MDR1-MDCK cells, apical to basolateral (A>B), 10 μM, 1 hour

Compound	Papp AB MDR1
COC(=O)N1Cc2cc(Cl)ccc2-n2c(C3CC4(C3)CN(c3ccc(F)cn3)C4)nnc2C1C (single isomer, unassigned) [142A]	++++ ((++++) denotes >20 (10^-6 cm/sec))
COC(=O)N1Cc2cc(Cl)ccc2-n2c(C3CC4(C3)CN(c3cnccn3)C4)nnc2C1C (single isomer, unassigned) [Cpd 165A]	+ ((+) denotes an apparent permeability <7 (10^-6 cm/sec))
CC(C)OC(=O)N1Cc2cc(Cl)ccc2-n2c(C3CC4(C3)CN(c3ncccn3)C4)nnc2C1C (single isomer, unassigned) [Cpd 167A]	++++ ((++++) denotes >20 (10^-6 cm/sec))
CCOC(=O)N1Cc2cc(Cl)ccc2-n2c(C3CC4(C3)CN(c3ncccn3)C4)nnc2C1C (single isomer, unassigned) [Cpd 168A]	++++ ((++++) denotes >20 (10^-6 cm/sec))
CCOC(=O)N1Cc2cc(Cl)ccc2-n2c(C3CC4(C3)CN(c3ccc(F)cn3)C4)nnc2C1C (single isomer, unassigned) [Cpd 169A]	++++ ((++++) denotes >20 (10^-6 cm/sec))
CC1c2nnc(C3CC4(C3)CN(c3ncccn3)C4)n2-c2ccc(Cl)cc2CN1C(=O)OC1CC1 (single isomer, unassigned) [Cpd 171A]	+ ((+) denotes an apparent permeability <7 (10^-6 cm/sec))
CC1c2nnc(C3CC4(C3)CN(c3ccc(F)cn3)C4)n2-c2ccc(Cl)cc2CN1C(=O)C1(F)CC1 (single isomer, unassigned) [Cpd 174A]	++++ ((++++) denotes >20 (10^-6 cm/sec))
CC1c2nnc(C3CC4(C3)CN(c3ccc(F)cn3)C4)n2-c2ccc(Cl)cc2CN1C(=O)C(C)(C)F (single isomer, unassigned) [Cpd 178A]	++++ ((++++) denotes >20 (10^-6 cm/sec))
CC1c2nnc(C3CC4(C3)CN(c3ccccn3)C4)n2-c2ccc(Cl)cc2CN1C(=O)C1(F)CC1 (single isomer, unassigned) [Cpd 181A]	++++ ((++++) denotes >20 (10^-6 cm/sec))
CC1c2nnc(C3CC4(C3)CN(c3ccc(F)cn3)C4)n2-c2ccc(Cl)cc2CN1C(=O)OC1CC1 (single isomer, unassigned) [Cpd 191A]	++++ ((++++) denotes >20 (10^-6 cm/sec))
CC1c2nnc(C3CC4(C3)CN(c3ncc(F)cn3)C4)n2-c2ccc(Cl)cc2CN1C(=O)OC1CC1 (single isomer, unassigned) [Cpd 192A]	++++ ((++++) denotes >20 (10^-6 cm/sec))
CC(C)OC(=O)N1Cc2cc(Cl)ccc2-n2c(C3CC4(C3)CN(c3ncc(F)cn3)C4)nnc2C1C (single isomer, unassigned) [Cpd 201A]	++++ ((++++) denotes >20 (10^-6 cm/sec))
CC1c2nnc(C3CC4(C3)CN(c3ncccn3)C4)n2-c2ccc(Cl)cc2CN1C(=O)OC(CF)CF (single isomer, unassigned) [Cpd 202A]	+ ((+) denotes an apparent permeability <7 (10^-6 cm/sec))

Tested on: not listed separately
Test: in vitro
Conditions: dog, MDCK

Papp A→B at 2 h	Compound
10 to 20 ×10⁻⁶ cm/s	CN1Cc2cc(Cl)ccc2-n2c(nnc2[C@H]2CC[C@H](Oc3ccccn3)CC2)C1 [balovaptan, reference compound]

Molecular target: V1a receptors (Rattus norvegicus (Rat), UniProt P30560)
Sequence (P30560 whole entry): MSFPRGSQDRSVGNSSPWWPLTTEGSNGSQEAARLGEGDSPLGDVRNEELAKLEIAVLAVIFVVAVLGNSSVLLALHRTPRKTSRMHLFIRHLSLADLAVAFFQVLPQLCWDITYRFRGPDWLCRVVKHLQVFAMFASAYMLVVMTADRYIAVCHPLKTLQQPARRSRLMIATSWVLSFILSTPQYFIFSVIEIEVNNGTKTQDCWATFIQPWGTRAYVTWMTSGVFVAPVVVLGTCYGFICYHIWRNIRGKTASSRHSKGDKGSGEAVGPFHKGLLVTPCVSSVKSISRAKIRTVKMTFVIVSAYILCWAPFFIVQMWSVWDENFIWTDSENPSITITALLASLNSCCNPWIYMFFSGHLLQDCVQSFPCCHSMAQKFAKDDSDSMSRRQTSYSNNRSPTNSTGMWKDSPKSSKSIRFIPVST
Test: Arginine-Vasopressin (AVP) induced phospho-Erk measurement in rat choroid plexus (RCP) cells
Type: cell-based
Conditions: second study, read-out: IC50, AVP induced pERK1/2 to total ERK1/2
From the text: When V1a receptors are coupled to phospholipase C (PLC), they increase intracellular Ca2+ concentrations and protein kinase C (PKC) activity, and transactivate the mitogen-activated protein kinases/extracellular signal-regulated kinase (MAPK/Erk) and PI3 kinase/Akt pathways upon activation (Chen et al., J Neuroendocrinol. 2010). Rat choroid plexus (RCP) cell lines express functional V1a receptors measured by increased calcium concentrations in response to V1a receptor agonists (Battle et al., Biochem Biophys Res Comm 2000).
RCP P9(18) cells were seeded 30K/well, in 100 μl growth medium containing 10% FBS in polystyrene 96-well plates and incubated at 37° C., 5% CO2 and incubated overnight. The following day, the growth medium was replaced with 50 μl pre-warmed HBSS containing 20 mM HEPES and the cells were incubated at 37° C., 5% CO2 for 1.5 hrs. 1 mM AVP (Sigma V9879) was freshly prepared in distilled water in a glass vial, and diluted to 3× concentrations in HBSS containing 20 mM HEPES and 0.1% BSA in glass vials and kept on ice. Cells were treated with 25 μl 3× vehicle, 3× eBioscience Cell Stimulation Cocktail (Thermo Fisher Scientific 00-4970-93) or 3×AVP and incubated at 37° C., 5% CO2 for 5, 10 or 20 min. Final concentrations of AVP: 10, 100 or 1000 nM. Final concentrations of components in Cell Stimulation Cocktail: 81 nM PMA, 1.34 μM ionomycin, 0.2% ethanol. Cells were lysed with 25 μl 4×CST lysis buffer containing protease and phosphatase inhibitors, PMSF and SDS and then stored at −80° C., for 48 h. The lysates were thawed, centrifuged at 2000 g for 30 min at 4° C. and 40 μl supernatants assayed for pERK1/2 (Thr202/Tyr204; Thr185/Tyr187) and total ERK1/2 using MSD kit K15107D. The MSD ECL data for the lysates were corrected for no cell blanks, then phospho-protein levels expressed as a ratio to the total ERK1/2 level. The ratios were expressed as fold-change from the vehicle-treated control at each timepoint.

Compound	IC50
COC(=O)N1Cc2cc(Cl)ccc2-n2c(C3CC4(C3)CN(c3ccc(F)cn3)C4)nnc2C1C (single isomer, unassigned) [142A]	20 nM
CN1Cc2cc(Cl)ccc2-n2c(nnc2[C@H]2CC[C@H](Oc3ccccn3)CC2)C1 [balovaptan, reference compound]	56.7 nM

Same assay, conditions: study 1, read-out: IC50, AVP induced pERK1/2 to total ERK1/2

Compound	IC50
COC(=O)N1Cc2cc(Cl)ccc2-n2c(C3CC4(C3)CN(c3ccc(F)cn3)C4)nnc2C1C (single isomer, unassigned) [142A]	16 nM
CN1Cc2cc(Cl)ccc2-n2c(nnc2[C@H]2CC[C@H](Oc3ccccn3)CC2)C1 [balovaptan, reference compound]	85.6 nM

Tested on: CD-1 mice
Test: Arginine-Vasopressin (AVP) induced behavior in mouse (i.c.v. AVP, scratching, digging, grooming)
Type: in vivo
Conditions: 100 mg/kg, po
Protocol: Administration of Arginine-Vasopressin (AVP) intracerebroventricularly (i.c.v.) elicits characteristic scratching, digging and grooming behavior in mice that can be measured readily and is sensitive to blockade with vasopressin antagonists (Meisenberg, 1988; Bleickart et al., 2009).
Male CD-1 mice (Charles River Germany) weighing 22-25 g upon the study in-life are used for this study. Animals are housed in groups of 4-5 per cage in standard temperature (22±1° C.) and light-controlled environment (lights on from 7 am to […]), with ad libitum access to food and water. Prior to commencing any procedures to the mice, they are allowed to habituate in the vivarium for a minimum of 7 days.
Anesthesia is induced in a plexiglass chamber for 2-3 min with 5% isoflurane, and maintained through a snout mask with 1-2% isoflurane thereafter. A homeothermic blanket system with a rectal probe is used to monitor and maintain the animal's body temperature at 37.0° C.±1.5° C. during the operation. […] The actual coordinates are calculated by the distance from the point in midline between the eyes and no skin incision is made. […]
Mice are observed and video-recorded for 15 minutes following AVP/saline administration and behaviors are measured (in seconds) and a cumulative time is calculated. […]

Compound	antagonist activity to AVP-induced scratching behaviors
CN1Cc2cc(Cl)ccc2-n2c(nnc2[C@H]2CC[C@H](Oc3ccccn3)CC2)C1 [balovaptan, reference compound]	effective

Tested on: MDR1 (P-gp)
Test: in vitro
Conditions: dog, MDCK-MDR1

Papp A→B at 2 h	Compound
> 20 ×10⁻⁶ cm/s	CN1Cc2cc(Cl)ccc2-n2c(nnc2[C@H]2CC[C@H](Oc3ccccn3)CC2)C1 [balovaptan, reference compound]
